From ChEMBL document CHEMBL1158250, “(all trans)-2,4,6,8,10,12-tetradecahexene-1,14-dial, a new pigment from Conidiobolus paulus” (J Nat Prod, 1996)

Key:
Bacillus cereus = assay: Antibacterial activity against Bacillus cereus B-3705 after 24 hrs by antibiotic disk assay; type: functional
[1] = Toxicity in chick embryo up to 100 ug; set-up: species or system Gallus gallus; conditions: chicken
Escherichia coli = assay: Antibacterial activity against Escherichia coli B-3704 after 24 hrs by antibiotic disk assay; type: functional

With `O=C/C=C/C=C/C=C/C=C/C=C/C=C/C=O` the MIC (Bacillus cereus) was 10 µg, the Activity [1] was “Non-toxic” and the MIC (Escherichia coli) was 50 µg.
